Test results reported in the NIST ThermoML archive (doi:10.1016/j.jct.2012.02.035).
± gives the expanded uncertainty stated by the source.

Tests used:
[1] = Crystal; DTA
[2] = Molar enthalpy of transition or fusion; details: DSC
[3] = Solid-liquid equilibrium temperature; details: 101 kPa; Crystal 2; DTA

Structure (SMILES) | Normal melting temperature [1] | Molar enthalpy of transition or fusion ([2]; Crystal 2) | Molar enthalpy of transition or fusion ([2]; Crystal) | Solid-liquid equilibrium temperature [3]
CCCC[N+](CCCC)(CCCC)CCCC.O=[N+]([O-])[O-] [tetrabutylammonium nitrate] | 118.0 ± 1.1 °C | 0.0478 ± 0.0239 kcal/mol | 3.42 ± 0.12 kcal/mol | 361.4 ± 0.2 K
CC[N+](CC)(CC)CC.O=[N+]([O-])[O-] [tetraethylammonium nitrate] |  | 2.58 ± 0.0956 kcal/mol |  | 371.5 ± 0.3 K
